One experiment deals with NCI-H596. Briefly: relative viability (nuclei count vs DMSO), 5 days (fraction); higher = more cells survive. The following applies: first compound 2.53 µM. The gist of the method: (§1)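 Each reported value is a median over duplicate plates. It expresses relative viability: treated-well nuclei count divided by vehicle-well nuclei count. Lung cancer cell lines in 1536-well plates were dosed by pin tool a day after seeding, alone with one drug or with a fixed anchor-drug dose plus five library-drug doses (not always all listed) in √10 steps, and nuclei were counted after 5 days.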
`Oc1nc(-c2ccc(C(F)(F)F)cc2)nc2c1CSCC2` [XAV939] + O=C(c1cc(Cc2n[nH]c(=O)c3ccccc23)ccc1F)N1CCN(C(=O)C2CC2)CC1 [Olaparib] (partner 8 µM) showed a relative viability of 0.556.
The same measure, in the same setting: under `C=C1C(=O)O[C@@H](CCCCCCCC)[C@@H]1C(=O)O` [C-75] + Nc1ncn([C@H]2C[C@H](O)[C@@H](CO)O2)c(=O)n1 [Decitabine] (partner 2 µM) stands 1.07.

The experiment is the same for the next values; noted with them: first compound 8 µM.
In the case of `C=C1C(=O)O[C@@H](CCCCCCCC)[C@@H]1C(=O)O` [C-75] + Nc1ncn([C@H]2C[C@H](O)[C@@H](CO)O2)c(=O)n1 [Decitabine] (partner 2 µM), the relative viability was found to be 0.96.

A further experiment deals with HCC-78. Described as above. As to conditions: first compound 0.08 µM. Summed up: as §1
Take `Oc1nc(-c2ccc(C(F)(F)F)cc2)nc2c1CSCC2` [XAV939] + O=C(CCCCCCC(=O)Nc1ccccc1)NO [Vorinostat] (partner 1 µM): the relative viability is 0.526.
The same measure, in the same setting: next, `Oc1nc(-c2ccc(C(F)(F)F)cc2)nc2c1CSCC2` [XAV939] + O=C(c1cc(Cc2n[nH]c(=O)c3ccccc23)ccc1F)N1CCN(C(=O)C2CC2)CC1 [Olaparib] (partner 8 µM): 0.843.
The same measure, in the same setting: under `Oc1nc(-c2ccc(C(F)(F)F)cc2)nc2c1CSCC2` [XAV939] + CC(=O)c1c(C)c2cnc(Nc3ccc(N4CCNCC4)cn3)nc2n(C2CCCC2)c1=O [Palbociclib] (partner 0.5 µM) stands 0.479; under `C=C1C(=O)O[C@@H](CCCCCCCC)[C@@H]1C(=O)O` [C-75] + CC(=O)c1c(C)c2cnc(Nc3ccc(N4CCNCC4)cn3)nc2n(C2CCCC2)c1=O [Palbociclib] (partner 0.5 µM), 0.476; under `C=C1C(=O)O[C@@H](CCCCCCCC)[C@@H]1C(=O)O` [C-75] + Nc1ncn([C@H]2C[C@H](O)[C@@H](CO)O2)c(=O)n1 [Decitabine] (partner 2 µM), 0.693.

Staying with this experiment, now noted: first compound 0.253 µM.
Molecule `Oc1nc(-c2ccc(C(F)(F)F)cc2)nc2c1CSCC2` [XAV939] + O=C(CCCCCCC(=O)Nc1ccccc1)NO [Vorinostat] (partner 1 µM) returned a relative viability of 0.453.
On the same count and under the same terms, under `Oc1nc(-c2ccc(C(F)(F)F)cc2)nc2c1CSCC2` [XAV939] + O=C(c1cc(Cc2n[nH]c(=O)c3ccccc23)ccc1F)N1CCN(C(=O)C2CC2)CC1 [Olaparib] (partner 8 µM) stands 0.821; under `Oc1nc(-c2ccc(C(F)(F)F)cc2)nc2c1CSCC2` [XAV939] + CC(=O)c1c(C)c2cnc(Nc3ccc(N4CCNCC4)cn3)nc2n(C2CCCC2)c1=O [Palbociclib] (partner 0.5 µM), 0.382.
As for `C=C1C(=O)O[C@@H](CCCCCCCC)[C@@H]1C(=O)O` [C-75] + CC(=O)c1c(C)c2cnc(Nc3ccc(N4CCNCC4)cn3)nc2n(C2CCCC2)c1=O [Palbociclib] (partner 0.5 µM), the relative viability is 0.469.
As for `C=C1C(=O)O[C@@H](CCCCCCCC)[C@@H]1C(=O)O` [C-75] + Nc1ncn([C@H]2C[C@H](O)[C@@H](CO)O2)c(=O)n1 [Decitabine] (partner 2 µM), the relative viability was found to be 0.676.

Still in this experiment, the particulars now being: first compound 0.8 µM.
Molecule `Oc1nc(-c2ccc(C(F)(F)F)cc2)nc2c1CSCC2` [XAV939] + O=C(CCCCCCC(=O)Nc1ccccc1)NO [Vorinostat] (partner 1 µM) displayed a relative viability of 0.443.
Turning to `Oc1nc(-c2ccc(C(F)(F)F)cc2)nc2c1CSCC2` [XAV939] + O=C(c1cc(Cc2n[nH]c(=O)c3ccccc23)ccc1F)N1CCN(C(=O)C2CC2)CC1 [Olaparib] (partner 8 µM), the relative viability turned out to be 0.713.
`Oc1nc(-c2ccc(C(F)(F)F)cc2)nc2c1CSCC2` [XAV939] + CC(=O)c1c(C)c2cnc(Nc3ccc(N4CCNCC4)cn3)nc2n(C2CCCC2)c1=O [Palbociclib] (partner 0.5 µM) came in with a relative viability of 0.466.
Consider `C=C1C(=O)O[C@@H](CCCCCCCC)[C@@H]1C(=O)O` [C-75] + CC(=O)c1c(C)c2cnc(Nc3ccc(N4CCNCC4)cn3)nc2n(C2CCCC2)c1=O [Palbociclib] (partner 0.5 µM), for which the relative viability came to 0.514.
Still for that read-out and setting: next, `C=C1C(=O)O[C@@H](CCCCCCCC)[C@@H]1C(=O)O` [C-75] + Nc1ncn([C@H]2C[C@H](O)[C@@H](CO)O2)c(=O)n1 [Decitabine] (partner 2 µM): 0.72.

Staying with this experiment, now noted: first compound 2.53 µM.
In turn, `Oc1nc(-c2ccc(C(F)(F)F)cc2)nc2c1CSCC2` [XAV939] + O=C(CCCCCCC(=O)Nc1ccccc1)NO [Vorinostat] (partner 1 µM) gave a relative viability of 0.415.
`Oc1nc(-c2ccc(C(F)(F)F)cc2)nc2c1CSCC2` [XAV939] + O=C(c1cc(Cc2n[nH]c(=O)c3ccccc23)ccc1F)N1CCN(C(=O)C2CC2)CC1 [Olaparib] (partner 8 µM) returned a relative viability of 0.592.
Still for that read-out and setting: next, `Oc1nc(-c2ccc(C(F)(F)F)cc2)nc2c1CSCC2` [XAV939] + CC(=O)c1c(C)c2cnc(Nc3ccc(N4CCNCC4)cn3)nc2n(C2CCCC2)c1=O [Palbociclib] (partner 0.5 µM): 0.527.
On the same count and under the same terms, under `C=C1C(=O)O[C@@H](CCCCCCCC)[C@@H]1C(=O)O` [C-75] + CC(=O)c1c(C)c2cnc(Nc3ccc(N4CCNCC4)cn3)nc2n(C2CCCC2)c1=O [Palbociclib] (partner 0.5 µM) stands 0.459.

The experiment is the same for the next values; noted with them: first compound 8 µM.
For the molecule `C=C1C(=O)O[C@@H](CCCCCCCC)[C@@H]1C(=O)O` [C-75] + CC(=O)c1c(C)c2cnc(Nc3ccc(N4CCNCC4)cn3)nc2n(C2CCCC2)c1=O [Palbociclib] (partner 0.5 µM), the relative viability came out at 0.461.
`C=C1C(=O)O[C@@H](CCCCCCCC)[C@@H]1C(=O)O` [C-75] + Nc1ncn([C@H]2C[C@H](O)[C@@H](CO)O2)c(=O)n1 [Decitabine] (partner 2 µM): the relative viability worked out at 0.667.

The subject of a further experiment is NCI-H1650. Described as above. The following applies: first compound 0.08 µM. Summed up: as §1
Regarding `Oc1nc(-c2ccc(C(F)(F)F)cc2)nc2c1CSCC2` [XAV939] + O=C(CCCCCCC(=O)Nc1ccccc1)NO [Vorinostat] (partner 1 µM), the relative viability was 0.909.
Consider `Oc1nc(-c2ccc(C(F)(F)F)cc2)nc2c1CSCC2` [XAV939] + O=C(c1cc(Cc2n[nH]c(=O)c3ccccc23)ccc1F)N1CCN(C(=O)C2CC2)CC1 [Olaparib] (partner 8 µM), for which the relative viability amounted to 0.762.
Still for that read-out and setting: under `Oc1nc(-c2ccc(C(F)(F)F)cc2)nc2c1CSCC2` [XAV939] + CC(=O)c1c(C)c2cnc(Nc3ccc(N4CCNCC4)cn3)nc2n(C2CCCC2)c1=O [Palbociclib] (partner 0.5 µM) stands 0.268; under `C=C1C(=O)O[C@@H](CCCCCCCC)[C@@H]1C(=O)O` [C-75] + CC(=O)c1c(C)c2cnc(Nc3ccc(N4CCNCC4)cn3)nc2n(C2CCCC2)c1=O [Palbociclib] (partner 0.5 µM), 0.431; under `C=C1C(=O)O[C@@H](CCCCCCCC)[C@@H]1C(=O)O` [C-75] + Nc1ncn([C@H]2C[C@H](O)[C@@H](CO)O2)c(=O)n1 [Decitabine] (partner 2 µM), 0.362.

The experiment is the same for the next values; noted with them: first compound 0.253 µM.
As for `Oc1nc(-c2ccc(C(F)(F)F)cc2)nc2c1CSCC2` [XAV939] + O=C(CCCCCCC(=O)Nc1ccccc1)NO [Vorinostat] (partner 1 µM), the relative viability is 0.524.

(Values after the supplement of paper PMC10307832.)
